In patent publication US20140343000A1 (priority 2011, published 2014):

system: recombinant NL4-3 virus (Renilla luciferase in nef, Gag P373S; NLRluc) in MT-2 cells; experiment: whole plant or invertebrate; assay type: cell-based, HIV; conditions: Renilla, NL43, luciferase activity in cells infected for 4-5 days with NLRluc recombinants, serial dilutions of inhibitor; class symbols (key in Table 1); read-out: EC50
Protocol: MT-2 cells and 293T cells were obtained from the NIH AIDS Research and Reference Reagent Program. MT-2 cells were propagated in RPMI 1640 media supplemented with 10% heat inactivated fetal bovine serum, […]. The 293T cells were propagated in DMEM media supplemented with 10% heat inactivated fetal bovine serum (FBS), 100 units/ml penicillin G and 100 μg/ml streptomycin. The proviral DNA clone of NL4-3 was obtained from the NIH AIDS Research and Reference Reagent Program. A recombinant NL4-3 virus, in which a section of the nef gene from NL4-3 was replaced with the Renilla luciferase gene, was used as a reference virus. In addition, residue Gag P373 was converted to P373S. Briefly, the recombinant virus was prepared by transfection of the altered proviral clone of NL4-3. Transfections were performed in 293T cells using LipofectAMINE PLUS from Invitrogen (Carlsbad, Calif.), according to manufacturer's instruction. The virus was titered in MT-2 cells using luciferase enzyme activity as a marker. Luciferase was quantitated using the Dual Luciferase kit from Promega (Madison, Wis.), with modifications to the manufacturer's protocol. The diluted Passive Lysis solution was pre-mixed with the re-suspended Luciferase Assay Reagent and the re-suspended Stop & Glo Substrate (2:1:1 ratio). Fifty (50) μL of the mixture was added to each aspirated well on assay plates and luciferase activity was measured immediately on a Wallac TriLux (Perkin-Elmer). Antiviral activities of inhibitors toward the recombinant virus were quantified by measuring luciferase activity in cells infected for 4-5 days with NLRluc recombinants in the presence serial dilutions of the inhibitor. Table 1 is the key for the data in Table 2.

SMILES	EC50 [µM]
C=C(C)[C@@H]1CC[C@]2(NCCN3CCN(S(C)(=O)=O)CC3)CC[C@]3(C)[C@H](CC[C@@H]4[C@@]5(C)CC=C(c6ccc(C(=O)O)c(F)c6)C(C)(C)[C@@H]5CC[C@]43C)[C@@H]12 [Example A8]	< 0.1
C=C(C)[C@@H]1CC[C@]2(NC(=O)N3CCN(C(=O)OC(C)(C)C)CC3C(=O)O)CC[C@]3(C)[C@H](CC[C@@H]4[C@@]5(C)CC=C(c6ccc(C(=O)O)cc6)C(C)(C)[C@@H]5CC[C@]43C)[C@@H]12 (mixture of isomers) [Example 62, 4-(tert-butoxycarbonyl)-1-((1R,3aS,5aR,5bR,7aR,11aS,11bR,13aR,13bR)-9-(4-carboxyphenyl)-5a,5b,8,8,11a-pentamethyl-1-(prop-1-en-2-yl)-2,3,3a,4,5,5a,5b,6,7,7a,8,11,11a,11b,12,13,13a,13b-octadecahydro-1H-cyclopenta[a]chrysen-3a-ylcarbamoyl)piperazine-2-carboxylic acid]	< 0.1
C=C(C)[C@@H]1CC[C@]2(NC(=O)C(CC3CCCCC3)N3CCS(=O)(=O)CC3)CC[C@]3(C)[C@H](CC[C@@H]4[C@@]5(C)CC=C(c6ccc(C(=O)O)cc6)C(C)(C)[C@@H]5CC[C@]43C)[C@@H]12 (stereo partly drawn) [Example 99, benzoic acid, 4-[(1R,3aS,5aR,5bR,7aR,11aS,11bR,13aR,13bR)-3a-[[3-cyclohexyl-2-(1,1-dioxido-4-thiomorpholinyl)-1-oxopropyl]amino]-2,3,3a,4,5,5a,5b,6,7,7a,8,11,11a,11b,12,13,13a,13b-octadecahydro-5a,5b,8,8,11a-pentamethyl-1-(1-methylethenyl)-1H-cyclopenta[a]chrysen-9-yl]]	< 0.1
C=C(C)[C@@H]1CC[C@]2(NCc3ccnc(F)c3)CC[C@]3(C)[C@H](CC[C@@H]4[C@@]5(C)CC=C(c6ccc(C(=O)O)cc6)C(C)(C)[C@@H]5CC[C@]43C)[C@@H]12 [Example 132, 4-((1R,3aS,5aR,5bR,7aR,11aS,11bR,13aR,13bR)-3a-((2-fluoropyridin-4-yl)methylamino)-5a,5b,8,8,11a-pentamethyl-1-(prop-1-en-2-yl)-2,3,3a,4,5,5a,5b,6,7,7a,8,11,11a,11b,12,13,13a,13b-octadecahydro-1H-cyclopenta[a]chrysen-9-yl)benzoic acid]	< 0.1
C=C(C)[C@@H]1CC[C@]2(NCCS(=O)(=O)CCO)CC[C@]3(C)[C@H](CC[C@@H]4[C@@]5(C)CC=C(c6ccc(C(=O)O)cc6)C(C)(C)[C@@H]5CC[C@]43C)[C@@H]12 [Example 135, 4-((1R,3aS,5aR,5bR,7aR,11aS,11bR,13aR,13bR)-3a-(2-(2-hydroxyethylsulfonyl)ethylamino)-5a,5b,8,8,11a-pentamethyl-1-(prop-1-en-2-yl)-2,3,3a,4,5,5a,5b,6,7,7a,8,11,11a,11b,12,13,13a,13b-octadecahydro-1H-cyclopenta[a]chrysen-9-yl)benzoic acid]	< 0.1
C=C(C)[C@@H]1CC[C@]2(NC(=O)N3CCNC(C(=O)O)C3)CC[C@]3(C)[C@H](CC[C@@H]4[C@@]5(C)CC=C(c6ccc(C(=O)O)cc6)C(C)(C)[C@@H]5CC[C@]43C)[C@@H]12 (mixture of isomers) [Example 63, 4-((1R,3aS,5aR,5bR,7aR,11aS,11bR,13aR,13bR)-9-(4-carboxyphenyl)-5a,5b,8,8,11a-pentamethyl-1-(prop-1-en-2-yl)-2,3,3a,4,5,5a,5b,6,7,7a,8,11,11a,11b,12,13,13a,13b-octadecahydro-1H-cyclopenta[a]chrysen-3a-ylcarbamoyl)piperazine-2-carboxylic acid]	< 0.1
C=C(C)[C@@H]1CC[C@]2(NCC(=O)NC)CC[C@]3(C)[C@H](CC[C@@H]4[C@@]5(C)CC=C(c6ccc(C(=O)O)cc6)C(C)(C)[C@@H]5CC[C@]43C)[C@@H]12 [Example 148, 4-((1R,3aS,5aR,5bR,7aR,11aS,11bR,13aR,13bR)-5a,5b,8,8,11a-pentamethyl-3a-(2-(methylamino)-2-oxoethylamino)-1-(prop-1-en-2-yl)-2,3,3a,4,5,5a,5b,6,7,7a,8,11,11a,11b,12,13,13a,13b-octadecahydro-1H-cyclopenta[a]chrysen-9-yl)benzoic acid]	< 0.1
C=C(C)[C@@H]1CC[C@]2(NC(=O)CNc3ccc(F)cc3)CC[C@]3(C)[C@H](CC[C@@H]4[C@@]5(C)CC=C(c6ccc(C(=O)O)cc6)C(C)(C)[C@@H]5CC[C@]43C)[C@@H]12 [Example 125, 4-((1R,3aS,5aR,5bR,7aR,11aS,11bR,13aR,13bR)-3a-(2-(4-fluorophenylamino)acetamido)-5a,5b,8,8,11a-pentamethyl-1-(prop-1-en-2-yl)-2,3,3a,4,5,5a,5b,6,7,7a,8,11,11a,11b,12,13,13a,13b-octadecahydro-1H-cyclopenta[a]chrysen-9-yl)benzoic acid]	< 0.1
C=C(C)[C@@H]1CC[C@]2(NC(=O)N(CCCOC)CCN3CCS(=O)(=O)CC3)CC[C@]3(C)[C@H](CC[C@@H]4[C@@]5(C)CC=C(c6ccc(C(=O)O)cc6)C(C)(C)[C@@H]5CC[C@]43C)[C@@H]12 [Example 68, 4-((1R,3aS,5aR,5bR,7aR,11aS,11bR,13aR,13bR)-3a-(((2-(1,1-dioxido-4-thiomorpholinyl)ethyl)(3-methoxypropyl)carbamoyl)amino)-1-isopropenyl-5a,5b,8,8,11a-pentamethyl-2,3,3a,4,5,5a,5b,6,7,7a,8,11,11a,11b,12,13,13a,13b-octadecahydro-1H-cyclopenta[a]chrysen-9-yl)benzoic acid]	< 0.1
C=C(C)[C@@H]1CC[C@]2(NCCN3CCN(C(=O)C4CCCCC4)CC3)CC[C@]3(C)[C@H](CC[C@@H]4[C@@]5(C)CC=C(c6ccc(C(=O)O)cc6)C(C)(C)[C@@H]5CC[C@]43C)[C@@H]12 [Example B53, 4-((1R,3aS,5aR,5bR,7aR,11aS,11bR,13aR,13bR)-3a-((2-(4-(cyclohexanecarbonyl)piperazin-1-yl)ethyl)amino)-5a,5b,8,8,11a-pentamethyl-1-(prop-1-en-2-yl)-2,3,3a,4,5,5a,5b,6,7,7a,8,11,11a,11b,12,13,13a,13b-octadecahydro-1H-cyclopenta[a]chrysen-9-yl)benzoic acid]	< 0.1
C=C(C)[C@@H]1CC[C@]2(NCCN3CC4(COC4)C3)CC[C@]3(C)[C@H](CC[C@@H]4[C@@]5(C)CC=C(c6ccc(C(=O)O)cc6)C(C)(C)[C@@H]5CC[C@]43C)[C@@H]12 [Example B17, 4-((1R,3aS,5aR,5bR,7aR,11aS,11bR,13aR,13bR)-3a-((2-(2-oxa-6-azaspiro[3.3]heptan-6-yl)ethyl)amino)-5a,5b,8,8,11a-pentamethyl-1-(prop-1-en-2-yl)-2,3,3a,4,5,5a,5b,6,7,7a,8,11,11a,11b,12,13,13a,13b-octadecahydro-1H-cyclopenta[a]chrysen-9-yl)benzoic acid]	< 0.1
C=C(C)[C@@H]1CC[C@]2(NCCN3CCS(=O)(=O)CC3)CC[C@]3(C)[C@H](CC[C@@H]4[C@@]5(C)CC=C(c6ccc(C(=O)O[C@H]7O[C@H](C(=O)OCc8ccccc8)[C@@H](O)[C@H](O)[C@H]7O)cc6)C(C)(C)[C@@H]5CC[C@]43C)[C@@H]12 [Example B7A, (2S,3S,4S,5R,6R)-benzyl 6-((4-((1R,3aS,5aR,5bR,7aR,11aS,11bR,13aR,13bR)-3a-((2-(1,1-dioxidothiomorpholino)ethyl)amino)-5a,5b,8,8,11a-pentamethyl-1-(prop-1-en-2-yl)-2,3,3a,4,5,5a,5b,6,7,7a,8,11,11a,11b,12,13,13a,13b-octadecahydro-1H-cyclopenta[a]chrysen-9-yl)benzoyl)oxy)-3,4,5-trihydroxytetrahydro-2H-pyran-2-carboxylate]	< 0.1
C=C(C)[C@@H]1CC[C@]2(NC(=O)CN3CCC(F)(F)C3)CC[C@]3(C)[C@H](CC[C@@H]4[C@@]5(C)CC=C(c6ccc(C(=O)O)cc6)C(C)(C)[C@@H]5CC[C@]43C)[C@@H]12 [Example 119, 4-((1R,3aS,5aR,5bR,7aR,11aS,11bR,13aR,13bR)-3a-(2-(3,3-difluoropyrrolidin-1-yl)acetamido)-5a,5b,8,8,11a-pentamethyl-1-(prop-1-en-2-yl)-2,3,3a,4,5,5a,5b,6,7,7a,8,11,11a,11b,12,13,13a,13b-octadecahydro-1H-cyclopenta[a]chrysen-9-yl)benzoic acid]	< 0.1
C=C(C)[C@@H]1CC[C@]2(NCCNc3cccc(SC)n3)CC[C@]3(C)[C@H](CC[C@@H]4[C@@]5(C)CC=C(c6ccc(C(=O)O)cc6)C(C)(C)[C@@H]5CC[C@]43C)[C@@H]12 [Example 198, 4-((1R,3aS,5aR,5bR,7aR,11aS,11bR,13aR,13bR)-5a,5b,8,8,11a-pentamethyl-3a-(2-(6-(methylthio)pyridin-2-ylamino)ethylamino)-1-(prop-1-en-2-yl)-2,3,3a,4,5,5a,5b,6,7,7a,8,11,11a,11b,12,13,13a,13b-octadecahydro-1H-cyclopenta[a]chrysen-9-yl)benzoic acid]	< 0.1
